Entries after “also recorded” stand apart in the source; their conditions may differ.
Legend:
[1] = target: T1, Dd myosin-2 ΔSH3 (lacks residues 33–79) (Dictyostelium discoideum, UniProt P08799, DEL33-79); test: Direct binding to truncated construct; conditions: construct lacks SH3-like β-barrel
T1 construct: Dd myosin-2 ΔSH3, a recombinant motor domain construct that lacks this subdomain; made in house

[2] = target: T2, β-cardiac myosin (Sus scrofa, UniProt P79293); test: Heat stress protection, storage and refolding of myosin; assay type: biochemical, Porcine; conditions: for Competence to bind nucleotide (mantATP amplitude) preserved: 25 μM EMD 57033
Method: The fraction of myosin that is able to bind mantATP drops to below 32% when the temperature is raised to 49°C for more than 5 min. Incubation for 10 min at 51°C removes the myosin completely and irreversibly from the soluble fraction. […] Moreover, based on the amplitude of the rise in mantATP fluorescence, the competence of β-cardiac myosin to bind nucleotide is preserved to more than 91% after 5-min incubation at 49°C and to approximately 82% after 10-min incubation at 49°C (Figure 4B). […] This view is supported by experiments that monitor the recovery of basal activity over a 2 hr period (Figure 4C). To obtain more detailed information about the kinetics of the EMD 57033-mediated refolding reaction, we performed three sets of experiments recording the time and concentration dependence of EMD 57033-mediated increases in the fraction of myosin molecules that are able to undergo nucleotide induced conformational changes, hydrolyze ATP, and produce movement in the in vitro motility assay.
Changes in intrinsic protein fluorescence are tightly linked to ATP binding and ATP-induced conformational changes in the myosin motor domain ([Batra and Manstein, 1999]). […] The dependence of the kobs values on the incubation time was best fit by a hyperbola (Figure 4E). […] The slope defines a value of 0.02 × 10^-3 μM^−1 s^−1 for the second order rate constant for the EMD 57033-mediated refolding reaction (Figure 4H).
Target sequence in this assay (P79293 1-778 limits assumed): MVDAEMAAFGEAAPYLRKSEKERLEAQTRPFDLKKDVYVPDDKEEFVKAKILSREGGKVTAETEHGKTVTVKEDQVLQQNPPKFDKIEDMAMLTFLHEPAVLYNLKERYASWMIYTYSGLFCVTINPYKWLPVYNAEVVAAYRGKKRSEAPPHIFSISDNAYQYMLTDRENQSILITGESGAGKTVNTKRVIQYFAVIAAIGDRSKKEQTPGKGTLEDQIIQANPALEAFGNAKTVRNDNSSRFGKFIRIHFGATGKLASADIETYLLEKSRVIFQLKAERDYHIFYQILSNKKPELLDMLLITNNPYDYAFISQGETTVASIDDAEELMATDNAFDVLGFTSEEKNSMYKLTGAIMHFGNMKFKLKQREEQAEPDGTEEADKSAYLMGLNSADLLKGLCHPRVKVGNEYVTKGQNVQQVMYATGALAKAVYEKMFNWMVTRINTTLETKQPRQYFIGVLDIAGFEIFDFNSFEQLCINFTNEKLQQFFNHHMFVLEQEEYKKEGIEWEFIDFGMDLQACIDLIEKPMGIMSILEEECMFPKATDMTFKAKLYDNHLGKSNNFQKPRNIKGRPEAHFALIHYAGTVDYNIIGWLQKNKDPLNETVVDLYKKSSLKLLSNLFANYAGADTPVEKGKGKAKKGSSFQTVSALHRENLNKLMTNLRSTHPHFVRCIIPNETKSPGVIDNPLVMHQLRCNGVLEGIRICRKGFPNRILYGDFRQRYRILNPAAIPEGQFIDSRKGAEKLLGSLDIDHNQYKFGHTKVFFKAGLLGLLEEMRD

[3] = target: T3, Dd myosin-2 motor domain (Dictyostelium discoideum, UniProt P08799); test: In vitro motility assay (actin filament sliding); assay type: biochemical
T3 sequence (P08799 1-761 limits assumed): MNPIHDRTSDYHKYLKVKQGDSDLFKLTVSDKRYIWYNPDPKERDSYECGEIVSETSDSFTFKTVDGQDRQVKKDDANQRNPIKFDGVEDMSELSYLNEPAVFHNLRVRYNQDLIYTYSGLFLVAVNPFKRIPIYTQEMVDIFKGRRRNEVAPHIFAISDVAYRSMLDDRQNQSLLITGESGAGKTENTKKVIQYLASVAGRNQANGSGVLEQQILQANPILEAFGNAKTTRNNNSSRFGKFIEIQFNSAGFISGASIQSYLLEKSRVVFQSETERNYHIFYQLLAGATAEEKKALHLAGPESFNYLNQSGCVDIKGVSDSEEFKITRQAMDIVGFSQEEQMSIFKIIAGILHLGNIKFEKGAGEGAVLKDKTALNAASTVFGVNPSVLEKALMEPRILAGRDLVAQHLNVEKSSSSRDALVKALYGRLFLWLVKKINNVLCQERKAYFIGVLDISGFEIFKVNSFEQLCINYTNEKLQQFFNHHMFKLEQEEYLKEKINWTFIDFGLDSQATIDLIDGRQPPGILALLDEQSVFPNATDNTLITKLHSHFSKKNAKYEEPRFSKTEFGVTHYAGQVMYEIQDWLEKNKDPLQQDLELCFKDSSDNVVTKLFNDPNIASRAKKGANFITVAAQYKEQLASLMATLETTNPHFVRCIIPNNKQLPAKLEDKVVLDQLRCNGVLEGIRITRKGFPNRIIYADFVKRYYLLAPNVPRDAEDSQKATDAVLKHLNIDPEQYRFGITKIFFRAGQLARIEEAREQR
Text: In addition, the fraction of moving filaments increased from <75% to >95%. […] In initial experiments, we determined the minimal concentration of α-actinin molecules that generate sufficient load to stall the movement of actin filaments for a given surface density of myosin heads. […] Next, we generated in vitro motility flow cells with actin filaments held at stall force. […] The time-dependence of the recovery of motile activity is best fit by a hyperbola. A plateau value of 0.4 μm s^−1 is reached after more than 2 hr (Figure 1G).
Actin-sliding motility was performed at 20°C using an Olympus IX81 (Olympus, Hamburg, Germany) inverted fluorescence microscope as described previously ([Fujita-Becker et al., 2005]). Average sliding velocities were determined from the Gaussian distribution of automatically tracked actin filaments using DiaTrack 3.01 (Semasopht, Chavannes, Switzerland) and Origin 7.0 (OriginLab Corporation, Northampton, MA). Errors indicate standard deviations.

[4] = target: T2, β-cardiac myosin; test: Steady-state basal and actin-activated Mg2+-ATPase (NADH-coupled assay); assay type: biochemical, Porcine
Method: Rabbit fast skeletal muscle heavy meromyosin (HMM) was prepared as described by [Margossian and Lowey (1982)]. Porcine β-cardiac myosin was prepared essentially as described by [Pant et al. (2009)] and [Jacques et al. (2008)] and further purified by gel filtration. S1 and HMM fragments were produced by proteolytic digestion of the full-length proteins with 0.05 mg/ml papain (10 min, 25°C) for S1 and with 0.1 mg/ml TLCK-treated α-chymotrypsin (15 min, 25°C) for HMM. Reactions were stopped with specific protease inhibitors for papain (10 µM E−64) and chymotrypsin (10 µM chymostatin, 1 mM benzamidine). Proteolytic fragments were further purified by actin-coprecipitation. Pellets were washed twice and myosin was extracted from the pellets using ATP containing buffer. Gel filtration was used to further increase purity of myosin S1 and HMM fragments. His-tagged motor domain constructs of Dd myosin-2, Dd myosin-1B, Dd myosin-1C, Dd myosin-1D, Dd myosin-1E, Dd myosin-5b fused to two Dd α-actinin repeats substituting the light-chain binding domains ([Anson et al., 1996]) were expressed in Dd AX3-ORF + cells and purified by Ni^2+-chelate affinity chromatography ([Manstein and Hunt, 1995]).
Basal and actin-activated Mg^2+-ATPase activities were measured using the NADH-coupled assay described previously ([Furch et al., 1998]) adapted for higher throughput screens for a temperature controlled plate reader (Multiscan FC, Thermo Scientific, Waltham, MA) at 25°C. […] Control measurements were carried out in the absence of drug, as well as in the presence of according concentrations of the non-binding (−)-enantiomer EMD 57439 to account for possible absorption effects. […] Data points are mean values from 3 to 5 independent experiments. Error bars indicate standard deviations.
Target sequence in this assay (P79293 1-810 limits assumed): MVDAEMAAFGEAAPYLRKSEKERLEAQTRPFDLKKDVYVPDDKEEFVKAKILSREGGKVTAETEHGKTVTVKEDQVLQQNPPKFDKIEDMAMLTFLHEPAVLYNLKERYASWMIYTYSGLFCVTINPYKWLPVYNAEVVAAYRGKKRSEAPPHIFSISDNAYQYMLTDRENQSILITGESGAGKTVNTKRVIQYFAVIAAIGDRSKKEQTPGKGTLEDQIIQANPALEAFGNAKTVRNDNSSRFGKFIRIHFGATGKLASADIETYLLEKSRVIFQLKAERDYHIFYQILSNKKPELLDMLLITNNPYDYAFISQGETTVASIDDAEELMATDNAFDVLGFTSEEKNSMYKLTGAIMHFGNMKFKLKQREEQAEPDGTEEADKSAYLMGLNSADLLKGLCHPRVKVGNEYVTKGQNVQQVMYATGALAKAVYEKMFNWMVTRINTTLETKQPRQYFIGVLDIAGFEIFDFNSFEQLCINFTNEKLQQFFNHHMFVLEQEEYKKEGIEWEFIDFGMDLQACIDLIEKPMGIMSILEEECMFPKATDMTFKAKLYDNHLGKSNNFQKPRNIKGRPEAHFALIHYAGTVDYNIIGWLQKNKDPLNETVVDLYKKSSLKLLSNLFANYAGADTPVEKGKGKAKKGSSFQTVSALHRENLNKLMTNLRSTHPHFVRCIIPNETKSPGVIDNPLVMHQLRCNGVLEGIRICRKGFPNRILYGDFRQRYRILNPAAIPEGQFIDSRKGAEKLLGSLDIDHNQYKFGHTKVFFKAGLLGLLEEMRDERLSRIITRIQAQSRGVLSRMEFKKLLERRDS

T1 sequence (P08799 other isoform, or with tags, fused parts or gaps DEL33-79): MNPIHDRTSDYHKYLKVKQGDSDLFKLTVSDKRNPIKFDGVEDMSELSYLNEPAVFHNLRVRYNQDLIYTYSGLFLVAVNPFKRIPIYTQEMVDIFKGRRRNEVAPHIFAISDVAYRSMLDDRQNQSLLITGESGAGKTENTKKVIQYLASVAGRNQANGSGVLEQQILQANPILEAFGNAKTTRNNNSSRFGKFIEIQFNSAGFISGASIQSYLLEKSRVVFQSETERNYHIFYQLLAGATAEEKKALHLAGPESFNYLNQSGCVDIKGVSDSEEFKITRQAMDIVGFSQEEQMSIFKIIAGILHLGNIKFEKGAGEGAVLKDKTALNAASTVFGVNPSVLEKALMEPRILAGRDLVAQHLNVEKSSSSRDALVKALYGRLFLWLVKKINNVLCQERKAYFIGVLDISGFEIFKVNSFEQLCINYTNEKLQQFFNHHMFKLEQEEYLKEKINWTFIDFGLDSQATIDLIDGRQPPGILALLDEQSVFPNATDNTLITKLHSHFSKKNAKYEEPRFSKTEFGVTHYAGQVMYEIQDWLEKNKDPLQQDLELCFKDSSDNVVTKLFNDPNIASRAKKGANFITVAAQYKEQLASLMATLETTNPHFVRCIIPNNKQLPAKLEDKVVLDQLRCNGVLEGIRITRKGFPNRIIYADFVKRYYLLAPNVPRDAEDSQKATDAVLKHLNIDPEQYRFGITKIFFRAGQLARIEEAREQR

COc1ccc(C(=O)N2CCCc3cc(C4=NNC(=O)SC4C)ccc32)cc1OC (centres unmarked) [EMD 57033]
Direct binding [1]: neither binding | Shelf life of protein-functionalized surfaces [2]: from a couple of hours to several months | Shelf life of myosin at 4°C ([2]; 25 µM EMD 57033): extends the shelf life | Competence to bind nucleotide (mantATP amplitude) preserved ([2]; 5-min incubation at 49°C): more than 91% | Competence to bind nucleotide (mantATP amplitude) preserved ([2]; 10-min incubation at 49°C): approximately 82% | Recovery of ability to bind mantATP after heat inactivation ([2]; 10 min at 49°C, then 25 µM EMD 57033): gradually recovered | First order dissociation rate constant for EMD 57033 (y-intercept) ([2]; heat-treated β-cardiac myosin): 0.00023 s⁻¹ | Second order rate constant for the EMD 57033-mediated refolding reaction (krescue) ([2]; heat-treated β-cardiac myosin, 10–100 μM EMD 57033): 20 M⁻¹ s⁻¹ | Recovery of enzymatic activity of fully denatured myosin aggregates ([2]; incubation for 6 hr on ice or at 20°C): no detectable recovery of enzymatic activity | Precipitation / solubility of myosin under heat stress ([2]; preincubation with 25 μM EMD 57033, 10-min incubation): remained in the supernatant over the entire temperature range tested; also recorded: prevents precipitation | Increase of actin filament sliding velocity ([3]; 100 µM EMD 57033): 1.6 fold | Average sliding velocity of actin filaments ([3]; in presence of 100 µM EMD 57033): 1.35 ± 0.2 µm s^−1 | Normalized maximal ATPase activation (basal) [4]: 1.5 | Effect on KM,ATP (Lineweaver–Burk plot) ([4]; 25 µM EMD 57033): remains unaffected | kcat increase (Lineweaver–Burk plot) ([4]; 25 µM EMD 57033): 1.5 fold | kcat ∼Change (−fold), increase ([4]; 25 µM EMD 57033 vs control): 1.6 fold | kcat/KM(Actin) (initial slope) ∼Change (−fold) ([4]; 25 µM EMD 57033 vs control): ~15.8 fold | Normalized maximal ATPase activation (with 30 µM actin) ([4]; 30 µM actin): 2.5 | kcat (actin-activated ATPase) ([4]; in presence of 25 µM EMD 57033): 0.19 ± 0.02 s⁻¹ | kcat/KM(Actin), calculated ratio of both values ([4]; in presence of 25 µM EMD 57033): 0.0528 µM^v1 s^−1 | Basal ATP turnover relative to that expected for 100% active protein ([4]; saturating EMD 57033): 1.5 fold | AC50 ([4]; β-Cardiac myosin-2 (S1, full-length), read-out: AC50 ATPase (half-maximal activation)): 7 µM | ATPase activity in excess of the value expected for a 100% active population of myosin heads ([4]; β-cardiac myosin and Dd myosin-2 preparations together): 30–50%
